Square brackets hold non-standard residues; d marks the D form. Peptide text beside a SMILES is read from it. * marks the point of attachment. X2 = O=C(NCCCCn1cc(CN*)nn1)c1ccc2c(c1)C1(OC2=O)c2ccc(O)cc2Oc2cc(O)ccc21; Isoxazole3carbonyl(5-iPr) = CC(C)c1cc(C(=O)*)no1; Tyr(3-Cl) = N[C@@H](Cc1ccc(O)c(Cl)c1)C(=O)O; Gly(3-thienyl) = N[C@H](C(=O)O)c1ccsc1; Lys(Et2) = CCN(CC)CCCC[C@H](N)C(=O)O
Columns and labels:
CBX7 ChD = biological target: T1, CBX7 ChD (Homo sapiens, UniProt O95931); assay: Direct fluorescence polarization (FP) binding assay
T1 construct: CBX chromodomain constructs; host or cells: E. coli BL21 CodonPlus RIL
T1 sequence (O95931 11-69 limits assumed): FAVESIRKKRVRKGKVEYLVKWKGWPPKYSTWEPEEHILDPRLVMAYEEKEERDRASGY
Protocol: CBX chromodomain constructs (addgene plasmid #25158 (CBX2), #25237 (CBX4), #25296 (CBX6), #25241 (CBX7) and #62514 (CBX8, provided by Cheryl Arrowsmith), Kaustov et al.) were transformed into chemically competent BL21 CodonPlus RIL E. coli cells (Stratagene, La Jolla, Calif.) as N-terminal His6-tagged proteins. Bacterial growth was completed at 37° C. in LB media to OD600=2.0, followed by reducing the temperature to 16° C. over 30-60 min and induced with 1 mM IPTG for 16 h. Cells were collected by centrifugation at 6000 rpm for 20 min and resuspended in ChD binding buffer (20 mM Tris, pH 8, 150 mM NaCl, 0.01% Tween-20, 20 mM imidazole) with 1.0 mM PMSF. Bacteria pellets were stored at −80° C. until needed. Pellets were thawed on ice for 10 min in ChD binding buffer, and shaked at 4° C. supplemented with 100 μg/mL lysozyme, 1 mg/mL CHAPS and 1 mM PMSF, for 30 min. Cells were subsequently lysed by sonication (15 W, 30 s on, followed by 30 s off, twice, followed by 20 W for 1 min). The solubilized fraction was collected by centrifugation at 15000 rpm for 40 min at 4° C. Meanwhile, Ni-NTA Agarose resin (QIAGEN, Venlo, Netherlands) was washed with H2O and equilibrated with ChD binding buffer. […] Protein purity was assessed by SDS-PAGE and concentration was determined by the Pierce 660 kit (Thermo Scientific).
Direct fluorescence polarization (FP) binding assay of PSL hits against PcG CBX ChDs. […]

CBX2 ChD = biological target: T2, CBX2 ChD (Homo sapiens, UniProt Q14781); assay: as above
T2 construct: CBX chromodomain constructs; host or cells: E. coli BL21 CodonPlus RIL
T2 sequence (Q14781 12-70 limits assumed): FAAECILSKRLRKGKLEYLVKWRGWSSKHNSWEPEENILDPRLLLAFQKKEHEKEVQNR
Protocol: Bacterial growth was completed at 37° C. in LB media to OD600=2.0, followed by reducing the temperature to 16° C. over 30-60 min and induced with 1 mM IPTG for 16 h. Cells were collected by centrifugation at 6000 rpm for 20 min and resuspended in ChD binding buffer (20 mM Tris, pH 8, 150 mM NaCl, 0.01% Tween-20, 20 mM imidazole) with 1.0 mM PMSF. Bacteria pellets were stored at −80° C. until needed. Pellets were thawed on ice for 10 min in ChD binding buffer, and shaked at 4° C. supplemented with 100 μg/mL lysozyme, 1 mg/mL CHAPS and 1 mM PMSF, for 30 min. Cells were subsequently lysed by sonication (15 W, 30 s on, followed by 30 s off, twice, followed by 20 W for 1 min). The solubilized fraction was collected by centrifugation at 15000 rpm for 40 min at 4° C. Meanwhile, Ni-NTA Agarose resin (QIAGEN, Venlo, Netherlands) was washed with H2O and equilibrated with ChD binding buffer. The soluble fraction was incubated with the prewashed Ni-NTA agarose resin at 4° C. for 2 h. The resin was then washed 3× with ChD purification buffer (20 mM Tris, pH 8, 150 mM NaCl, 0.01% Tween-20, 1 mM PMSF). Proteins were eluted by the addition of 0.5 M imidazole to ChD purification buffer. The elution was diluted with 30% glycerol, flash frozen, and stored at −80° C. until needed. Protein purity was assessed by SDS-PAGE and concentration was determined by the Pierce 660 kit (Thermo Scientific).
Direct fluorescence polarization (FP) binding assay of PSL hits against PcG CBX ChDs. FP assays were conducted as above with slight modifications. Alkyne peptides described above were conjugated with a fluorescein group(5-/6-FAM) through copper catalyzed click reaction as previously described. The FAM-labeled peptide was kept constant at 100 nM. The CBX ChD proteins were titrated by 2-fold series dilutions in the assays. The highest protein concentrations, at which FAM-peptide was completely bound, used for each CBX in the direct binding assays depends on the binding affinity of the peptides. Assays were performed for each peptide in four replicates.

CC[C@H](C)[C@H](NC(=O)[C@@H](NC(=O)[C@H](Cc1ccc(O)c(Cl)c1)NC(=O)c1cc(C(C)C)on1)c1ccsc1)C(=O)N[C@@H](CCCCN(CC)CC)C(=O)N[C@@H](CO)C(=O)NCc1cn(CCCCNC(=O)c2ccc3c(c2)C2(OC3=O)c3ccc(O)cc3Oc3cc(O)ccc32)nn1 [SW2_104A-FL] ({Isoxazole3carbonyl(5-iPr)}-[Tyr(3-Cl)][Gly(3-thienyl)]I[Lys(Et2)]S-X2)
Kd (CBX7 ChD): 840 ± 380 nM | Kd (CBX2 ChD): 51 ± 36 nM
